The NIST ThermoML archive (doi:10.1016/j.tca.2011.02.027)
± gives the expanded uncertainty stated by the source.

Assays:
[1] = Crystal; DTA
[2] = molar heat capacity at constant pressure; conditions: 101.33 kPa, Liquid, Large sample (1 g) DSC
[3] = molar heat capacity at constant pressure; xn = mol fraction of the nth substance listed; conditions: 101.3 kPa, Liquid, Large sample (1 g) DSC

CCCCn1cc[n+](C)c1C.F[P-](F)(F)(F)(F)F [1-butyl-2,3-dimethylimidazolium hexafluorophosphate]
Conditions | Normal melting temperature [°C]
[1] | 38.00 ± 3

[2]
Conditions | molar heat capacity at constant pressure [J/K/mol]
323.2 K | 439.3 ± 19
328.2 K | 442.9 ± 19
333.2 K | 446.2 ± 19
338.2 K | 449.4 ± 19
343.2 K | 452.7 ± 19
348.2 K | 457 ± 19
353.2 K | 460.1 ± 20
358.2 K | 464.4 ± 20
363.2 K | 468 ± 20
368.2 K | 471.6 ± 20
373.2 K | 475.1 ± 20
378.2 K | 478.9 ± 20
383.2 K | 482.6 ± 20

CCCCn1cc[n+](C)c1C.F[P-](F)(F)(F)(F)F [1-butyl-2,3-dimethylimidazolium hexafluorophosphate] + O
molar heat capacity at constant pressure [J/K/mol], [3]
Conditions | x1 = 0.8 | x1 = 0.85 | x1 = 0.9 | x1 = 0.95 | x1 = 1
303.2 K | 387 ± 16 | 396.4 ± 17 | 407.2 ± 17 | 418.3 ± 18 | –
308.2 K | 389.2 ± 16 | 398.4 ± 17 | 409.4 ± 17 | 420.5 ± 18 | –
313.2 K | 391.2 ± 17 | 400.5 ± 17 | 411.9 ± 18 | 423.3 ± 18 | –
318.2 K | 393.4 ± 17 | 402.7 ± 17 | 414.5 ± 18 | 426 ± 18 | –
323.2 K | 395.9 ± 17 | 405.5 ± 17 | 417.7 ± 18 | 429.4 ± 18 | 439.3 ± 19
328.2 K | 398.9 ± 17 | 408.8 ± 17 | 421.3 ± 18 | 433.2 ± 18 | 442.9 ± 19
333.2 K | 401.8 ± 17 | 411.9 ± 18 | 424.7 ± 18 | 436.7 ± 18 | 446.2 ± 19
338.2 K | 404.5 ± 17 | 414.9 ± 18 | 428 ± 18 | 440.1 ± 19 | 449.4 ± 19
343.2 K | 407.5 ± 17 | 417.9 ± 18 | 431.2 ± 18 | 443.5 ± 19 | 452.7 ± 19
348.2 K | 411.1 ± 17 | 421.7 ± 18 | 435.2 ± 18 | 447.6 ± 19 | 457 ± 19
353.2 K | 414.1 ± 18 | 424.8 ± 18 | 438.3 ± 19 | 450.9 ± 19 | 460.1 ± 20
358.2 K | – | – | – | – | 464.4 ± 20
363.2 K | – | – | – | – | 468 ± 20
368.2 K | – | – | – | – | 471.6 ± 20
373.2 K | – | – | – | – | 475.1 ± 20
378.2 K | – | – | – | – | 478.9 ± 20
383.2 K | – | – | – | – | 482.6 ± 20

CCCCn1cc[n+](C)c1C.F[B-](F)(F)F [1-butyl-2,3-dimethylimidazolium tetrafluoroborate]
Conditions | Normal melting temperature [°C]
[1] | 32.00 ± 1

[2]
Conditions | molar heat capacity at constant pressure [J/K/mol]
313.2 K | 397.3 ± 17
318.2 K | 398.8 ± 17
323.2 K | 400.6 ± 17
328.2 K | 403.3 ± 17
333.2 K | 405.4 ± 17
338.2 K | 407.8 ± 17
343.2 K | 410.6 ± 17
348.2 K | 413.5 ± 18
353.2 K | 416.5 ± 18
358.2 K | 420.2 ± 18
363.2 K | 423.6 ± 18
368.2 K | 427.3 ± 18
373.2 K | 430.6 ± 18
378.2 K | 434.4 ± 18
383.2 K | 436.3 ± 18

CCCCn1cc[n+](C)c1C.F[B-](F)(F)F [1-butyl-2,3-dimethylimidazolium tetrafluoroborate] + O
molar heat capacity at constant pressure [J/K/mol], [3]
Conditions | x1 = 0.2 | x1 = 0.4 | x1 = 0.6 | x1 = 0.8 | x1 = 1
303.2 K | 146.9 ± 6.2 | 217.5 ± 9.2 | 284.4 ± 12 | 343 ± 15 | –
308.2 K | 147.2 ± 6.2 | 218.2 ± 9.3 | 285.6 ± 12 | 344.2 ± 15 | –
313.2 K | 147.8 ± 6.3 | 219.3 ± 9.3 | 287 ± 12 | 346.3 ± 15 | 397.3 ± 17
318.2 K | 148.4 ± 6.3 | 220.4 ± 9.4 | 288.6 ± 12 | 348.5 ± 15 | 398.8 ± 17
323.2 K | 149.1 ± 6.3 | 221.7 ± 9.4 | 290.3 ± 12 | 351 ± 15 | 400.6 ± 17
328.2 K | 149.8 ± 6.4 | 223.2 ± 9.5 | 292.1 ± 12 | 353.2 ± 15 | 403.3 ± 17
333.2 K | 150.4 ± 6.4 | 224.1 ± 9.5 | 293.5 ± 12 | 355.6 ± 15 | 405.4 ± 17
338.2 K | 151.1 ± 6.4 | 225.2 ± 9.6 | 295.7 ± 12 | 358.1 ± 15 | 407.8 ± 17
343.2 K | 151.7 ± 6.4 | 226.4 ± 9.6 | 297.6 ± 13 | 360.8 ± 15 | 410.6 ± 17
348.2 K | 152.4 ± 6.5 | 227.7 ± 9.7 | 299.5 ± 13 | 363.5 ± 15 | 413.5 ± 18
353.2 K | 153.1 ± 6.5 | 229.2 ± 9.7 | 301.7 ± 13 | 366.3 ± 16 | 416.5 ± 18
358.2 K | – | – | – | – | 420.2 ± 18
363.2 K | – | – | – | – | 423.6 ± 18
368.2 K | – | – | – | – | 427.3 ± 18
373.2 K | – | – | – | – | 430.6 ± 18
378.2 K | – | – | – | – | 434.4 ± 18
383.2 K | – | – | – | – | 436.3 ± 18

CCCCn1cc[n+](C)c1.[Br-] [1-butyl-3-methylimidazolium bromide]
Conditions | Normal melting temperature [°C]
[1] | 73.00 ± 2

[2]
Conditions | molar heat capacity at constant pressure [J/K/mol]
353.2 K | 334.8 ± 14
358.2 K | 338.1 ± 14
363.2 K | 341.1 ± 14
368.2 K | 344.6 ± 15
373.2 K | 347.5 ± 15
378.2 K | 350.6 ± 15
383.2 K | 354.1 ± 15
388.2 K | 356.7 ± 15
393.2 K | 359.9 ± 15
398.2 K | 363.4 ± 15
403.2 K | 366.4 ± 16

CCCCn1cc[n+](C)c1.[Cl-] [1-butyl-3-methylimidazolium chloride]
Conditions | Normal melting temperature [°C]
[1] | 57.00 ± 1

[2]
Conditions | molar heat capacity at constant pressure [J/K/mol]
343.2 K | 337.2 ± 14
348.2 K | 340.3 ± 14
353.2 K | 343.3 ± 15
358.2 K | 347.1 ± 15
363.2 K | 350.6 ± 15
368.2 K | 354.3 ± 15
373.2 K | 357.6 ± 15
378.2 K | 361 ± 15
383.2 K | 364.3 ± 16
388.2 K | 367.4 ± 16
393.2 K | 370.7 ± 16
398.2 K | 374 ± 16
403.2 K | 376.8 ± 16

CCCCn1cc[n+](C)c1.[Cl-] [1-butyl-3-methylimidazolium chloride] + O
molar heat capacity at constant pressure [J/K/mol], [3]
Conditions | x1 = 0.2 | x1 = 0.4 | x1 = 0.6 | x1 = 0.8 | x1 = 1
303.2 K | 125.6 ± 5.3 | 170.2 ± 7.2 | 218.6 ± 9.3 | 272.6 ± 12 | –
308.2 K | 126.7 ± 5.4 | 171.6 ± 7.3 | 220 ± 9.3 | 274.4 ± 12 | –
313.2 K | 127.7 ± 5.4 | 173 ± 7.3 | 221.8 ± 9.4 | 276.3 ± 12 | –
318.2 K | 128.6 ± 5.5 | 174.5 ± 7.4 | 223.9 ± 9.5 | 279.3 ± 12 | –
323.2 K | 129.9 ± 5.5 | 176.2 ± 7.5 | 225.9 ± 9.6 | 280.9 ± 12 | –
328.2 K | 130.9 ± 5.6 | 177.6 ± 7.5 | 228 ± 9.7 | 282.9 ± 12 | –
333.2 K | 131.8 ± 5.6 | 179 ± 7.6 | 230 ± 9.8 | 285.5 ± 12 | –
338.2 K | 133.1 ± 5.6 | 180.5 ± 7.7 | 232 ± 9.8 | 288.2 ± 12 | –
343.2 K | 133.8 ± 5.7 | 182.2 ± 7.7 | 234.1 ± 9.9 | 290.5 ± 12 | 337.2 ± 14
348.2 K | 135.2 ± 5.7 | 183.6 ± 7.8 | 236.4 ± 10 | 293.1 ± 12 | 340.3 ± 14
353.2 K | 136 ± 5.8 | 185.9 ± 7.9 | 238.6 ± 10 | 296.3 ± 13 | 343.3 ± 15
358.2 K | – | – | – | – | 347.1 ± 15
363.2 K | – | – | – | – | 350.6 ± 15
368.2 K | – | – | – | – | 354.3 ± 15
373.2 K | – | – | – | – | 357.6 ± 15
378.2 K | – | – | – | – | 361 ± 15
383.2 K | – | – | – | – | 364.3 ± 16
388.2 K | – | – | – | – | 367.4 ± 16
393.2 K | – | – | – | – | 370.7 ± 16
398.2 K | – | – | – | – | 374 ± 16
403.2 K | – | – | – | – | 376.8 ± 16
